In patent US12336982B2 (RODEO THERAPEUTICS CORPORATION, priority 2018, dated 2025):

Molecular target: T1, recombinant 15-PGDH (Homo sapiens, UniProt P15428)
T1 sequence (P15428 1-266): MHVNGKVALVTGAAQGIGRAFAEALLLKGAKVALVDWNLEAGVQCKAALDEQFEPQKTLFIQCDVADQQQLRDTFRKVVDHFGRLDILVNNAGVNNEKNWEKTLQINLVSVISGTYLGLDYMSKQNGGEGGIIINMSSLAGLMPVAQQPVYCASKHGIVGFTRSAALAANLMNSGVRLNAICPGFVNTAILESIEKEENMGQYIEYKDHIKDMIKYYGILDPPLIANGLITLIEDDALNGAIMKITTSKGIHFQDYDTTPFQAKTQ
Type: biochemical
Settings: recombinant human 15-PGDH, in vitro; read-out: PDGH Assay-IC50
Source text: The Recombinant 15-PGDH is human unless otherwise specified.

| Compound | IC50 |
| --- | --- |
| COCC[S+]([O-])c1sc2nc(-c3cnc4c(c3)CN(C)C4=O)cc(-c3ccccc3)c2c1N (centres unmarked) [Example 384] | < 2.5 nM |
| COCC[S@@+]([O-])c1sc2nc(-c3cnc4nn(C)cc4c3)cc(C(C)C)c2c1N [Example 408] | < 2.5 nM |
| Nc1c([S+]([O-])C2CCC2)sc2nc(-c3ccc(NCCO)nc3)cc(-c3ccccn3)c12 (centres unmarked) [Example 83] | < 2.5 nM |
| Cn1cc(-c2cc(-c3cncnc3)nc3sc([S+]([O-])C4CCC4)c(N)c23)cn1 (centres unmarked) [Example 282] | < 2.5 nM |
| Nc1c([S+]([O-])C2CCC2)sc2nc(-c3ccnn3C3CC3)cc(-c3cncnc3)c12 (centres unmarked) [Example 416] | ≥ 10 nM |
| Nc1c([S+]([O-])C2CCC2)sc2nc(-c3cnc(NCC(=O)O)nc3)cc(-c3ccccc3)c12 (centres unmarked) [Example 155] | < 2.5 nM |
| COCCn1ccc(-c2cc(-c3cnc4nn(C)cc4c3)nc3sc([S@+]([O-])CCOC)c(N)c23)n1 [Example 387] | < 2.5 nM |
| COCCC[S+]([O-])c1sc2nc(-c3cnc4nn(C)cc4c3)cc(-c3ccccc3)c2c1N (centres unmarked) [Example 123] | < 2.5 nM |
| COCC[S+]([O-])c1sc2nc(-c3cnn(C)c(=O)c3)cc(C3CCC3)c2c1N (centres unmarked) [Example 396] | < 2.5 nM |
| COCC[S@@+]([O-])c1sc2nc(-c3cnc4nn(C)nc4c3)cc(-c3ccnn3C)c2c1N [Example 381] | < 2.5 nM |
| Nc1c([S+]([O-])C2CCC2)sc2nc(-c3cnc(NCCO)nc3)cc(C3CC3)c12 (centres unmarked) [Example 145] | < 2.5 nM |
| COCC[S+]([O-])c1sc2nc(-c3cncnc3)cc(C(F)(F)F)c2c1N (centres unmarked) [Example 130] | < 2.5 nM |
| COCCC[S+]([O-])c1sc2nc(-c3cnc(O)nc3)cc(-c3ccccc3)c2c1N (centres unmarked) [Example 166] | 2.5 to 10 nM |
| Nc1c([S+]([O-])C2CCC2)sc2nc(-c3ccc(NCCO)nc3)cc(-c3ccccc3)c12 (centres unmarked) [Example 63] | < 2.5 nM |
| Cn1nccc1-c1cc(-c2cnc3ncn(C)c3c2)nc2sc([S@@+]([O-])C3CCC3)c(N)c12 [Example 372] | ≥ 10 nM |
| Nc1c([S+]([O-])C2CCC2)sc2nc(-c3cnc(NCCN4CCS(=O)(=O)CC4)nc3)cc(-c3ccccc3)c12 (centres unmarked) [Example 142] | < 2.5 nM |
| Nc1c([S+]([O-])C2CCC2)sc2nc(-c3cnc(NCCO)nc3)cc(-c3ccc(C(F)(F)F)cc3)c12 (centres unmarked) [Example 160] | 2.5 to 10 nM |
| COCCC[S+]([O-])c1sc2nc(-c3cnc4c(c3)CNC4=O)cc(-c3ccccc3)c2c1N (centres unmarked) [Example 303] | < 2.5 nM |
| COCCC[S+]([O-])c1sc2nc(-c3cncnc3)cc(C(F)(F)F)c2c1N (centres unmarked) [Example 131] | < 2.5 nM |
| COCC[S+]([O-])c1sc2nc(-c3cnc4nn(C)cc4c3)cc(-c3ccnn3C)c2c1N (centres unmarked) [Example 334] | < 2.5 nM |
| Nc1c([S@+]([O-])C2CCC2)sc2nc(-c3cnc(NCCO)nc3)cc(C3CCC3)c12 [Example 306] | < 2.5 nM |
| COCC[S@+]([O-])c1sc2nc(-c3cnn(C)c3)cc(C3CC3)c2c1N [Example 276] | ≥ 10 nM |
| Nc1c([S+]([O-])C2CCC2)sc2nc(-c3cnc(NCCO)nc3)cc(-c3ccccn3)c12 (centres unmarked) [Example 92] | < 2.5 nM |
| COCC[S@@+]([O-])c1sc2nc(-c3cnn(C)c3)cc(C3CC3)c2c1N [Example 275] | < 2.5 nM |
| COCC[S+]([O-])c1sc2nc(-c3cncnc3)cc(-c3ccccc3)c2c1N (centres unmarked) [Example 72] | < 2.5 nM |

| Compound | IC50 |
| --- | --- |
| Cn1cc2cc(-c3cc(-c4ccc(OCCO)cc4)c4c(N)c([S+]([O-])C5CCC5)sc4n3)cnc2n1 (centres unmarked) [Example 283] | < 2.5 nM |
| COCC[S+]([O-])c1sc2nc(-c3cncnc3)cc(C3CCC3)c2c1N (centres unmarked) [Example 251] | < 2.5 nM |
| Cn1ccc(-c2cc(-c3cnc(NCCO)nc3)nc3sc([S+]([O-])C4CCC4)c(N)c23)n1 (centres unmarked) [Example 340] | < 2.5 nM |
| Cn1nccc1-c1cc(-c2cnc3c(c2)nnn3C)nc2sc([S@+]([O-])C3CCC3)c(N)c12 [Example 326] | < 2.5 nM |
| COCC[S@+]([O-])c1sc2nc(-c3cccnc3)cc(C(F)(F)F)c2c1N [Example 81] | ≥ 10 nM |
| CN(CCO)c1ncc(-c2cc(C(F)(F)F)c3c(N)c([S+]([O-])C4CCC4)sc3n2)cn1 (centres unmarked) [Example 188] | 2.5 to 10 nM |
| Cn1nccc1-c1cc(-c2cnc(O)nc2)nc2sc([S@+]([O-])C3CCC3)c(N)c12 [Example 224] | < 2.5 nM |
| COCCC[S+]([O-])c1sc2nc(-c3cccnc3)cc(C(F)(F)F)c2c1N (centres unmarked) [Example 56] | < 2.5 nM |
| Nc1c([S@+]([O-])C2CCC2)sc2nc(-c3cnc(NCCO)nc3)cc(-c3ncccc3F)c12 [Example 181] | < 2.5 nM |
| Nc1ncc(-c2cc(-c3ncccn3)c3c(N)c([S+]([O-])C4CCC4)sc3n2)cn1 (centres unmarked) [Example 328] | < 2.5 nM |
| CN(C)CCOc1ncc(-c2cc(-c3ccccc3)c3c(N)c([S+]([O-])C4CCC4)sc3n2)cn1 (centres unmarked) [Example 47] | 2.5 to 10 nM |
| COCC[S+]([O-])c1sc2nc(-c3cnc4c(c3)ncn4C)cc(-c3ccnn3C)c2c1N (centres unmarked) [Example 379] | < 2.5 nM |
| Cn1cc2cc(-c3cc(C(F)(F)F)c4c(N)c([S@@+]([O-])C5CCC5)sc4n3)cnc2n1 [Example 422] | ≥ 10 nM |
| COCCC[S+]([O-])c1sc2nc(-c3ccc(NC(=O)OC)nc3)cc(-c3cccnc3)c2c1N (centres unmarked) [Example 105] | 2.5 to 10 nM |
| COCC[S+]([O-])c1sc2nc(-c3cnc4nn(C)nc4c3)cc(C3CCC3)c2c1N (centres unmarked) [Example 377] | < 2.5 nM |
| COCC[S@@+]([O-])c1sc2nc(-c3cnc(NCCO)nc3)cc(C(F)(F)F)c2c1N [Example 206] | < 2.5 nM |
| COCC[S+]([O-])c1sc2nc(-c3cncnc3)cc(-c3ncccn3)c2c1N (centres unmarked) [Example 229] | < 2.5 nM |
| Nc1c([S+]([O-])C2CCC2)sc2nc(-c3cncnc3)cc(C34CC(C3)C4)c12 (centres unmarked) [Example 257] | < 2.5 nM |
| COCC[S@+]([O-])c1sc2nc(-c3cnc4ncn(C)c4c3)cc(-c3ccccc3)c2c1N [Example 363] | ≥ 10 nM |
| COCC[S+]([O-])c1sc2nc(-c3cnc4ncnn4c3)cc(-c3ccccc3)c2c1N (centres unmarked) [Example 399] | < 2.5 nM |
| COCC[S+]([O-])c1sc2nc(-c3ccc(NC(=O)OC)nc3)cc(C3CCC3)c2c1N (centres unmarked) [Example 391] | 2.5 to 10 nM |
| COCC[S@+]([O-])c1sc2nc(-c3cnc4nncn4c3)cc(-c3ccccc3)c2c1N [Example 360] | ≥ 10 nM |
| COCCn1ccc(-c2cc(-c3cnc4nn(C)cc4c3)nc3sc([S+]([O-])CCOC)c(N)c23)n1 (centres unmarked) [Example 386] | < 2.5 nM |
| COCCC[S+]([O-])c1sc2nc(-c3cnc4c(cnn4CCO)c3)cc(-c3ccccc3)c2c1N (centres unmarked) [Example 301] | 2.5 to 10 nM |
| Nc1c([S@@+]([O-])C2CCC2)sc2nc(-c3cnc(NCCO)nc3)cc(-c3cccnc3)c12 [Example 104] | ≥ 10 nM |

| Compound | IC50 |
| --- | --- |
| COCC[S@@+]([O-])c1sc2nc(-c3cncnc3)cc(-c3ccccc3)c2c1N [Example 85] | < 2.5 nM |
| COCC[S+]([O-])c1sc2nc(-c3ccc4c(=O)[nH]ccc4c3)cc(-c3ccnn3C)c2c1N (centres unmarked) [Example 317] | < 2.5 nM |
| COCCC[S+]([O-])c1sc2nc(-c3cnc(C)nc3)cc(C(F)(F)F)c2c1N (centres unmarked) [Example 136] | 2.5 to 10 nM |
| COCC[S@@+]([O-])c1sc2nc(-c3cnc4c(c3)CNC4=O)cc(-c3ccccc3)c2c1N [Example 242] | < 2.5 nM |
| COCC[S+]([O-])c1sc2nc(-c3cnc4c(c3)ncn4C)cc(C3CCC3)c2c1N (centres unmarked) [Example 376] | < 2.5 nM |
| Nc1c([S@+]([O-])C2CCC2)sc2nc(-c3cnc4ncnn4c3)cc(-c3ccccc3)c12 [Example 402] | < 2.5 nM |
| COCCn1ccc(-c2cc(-c3cnc4nn(C)cc4c3)nc3sc([S@@+]([O-])CCOC)c(N)c23)n1 [Example 388] | ≥ 10 nM |
| COCC[S@@+]([O-])c1sc2nc(-c3ccnnc3)cc(-c3ccccc3)c2c1N [Example 211] | < 2.5 nM |
| COCC[S+]([O-])c1sc2nc(-c3cnc(N)nc3)cc(-c3ccccc3)c2c1N (centres unmarked) [Example 73] | < 2.5 nM |
| COCC[S+]([O-])c1sc2nc(-c3cnc4ncn(C)c4c3)cc(C3CCC3)c2c1N (centres unmarked) [Example 365] | < 2.5 nM |
| COCCC[S+]([O-])c1sc2nc(-c3cncnc3)cc(-c3ccncn3)c2c1N (centres unmarked) [Example 237] | < 2.5 nM |
| COCC[S+]([O-])c1sc2nc(-c3cncnc3)cc(-c3ccn(C)n3)c2c1N (centres unmarked) [Example 337] | < 2.5 nM |
| COCC[S+]([O-])c1sc2nc(-c3cnc4nn(CCO)cc4c3)cc(-c3ccccc3)c2c1N (centres unmarked) [Example 263] | < 2.5 nM |
| Cc1cc(-c2cc(-c3cncnc3)nc3sc([S+]([O-])C4CCC4)c(N)c23)ccn1 (centres unmarked) [Example 154] | < 2.5 nM |
| COCC[S+]([O-])c1sc2nc(-c3cnc4nn(C)cc4c3)cc(C(F)(F)F)c2c1NC(C)=O (centres unmarked) [Example 208] | ≥ 10 nM |
| COCCC[S+]([O-])c1sc2nc(-c3ccc(N)nc3)cc(C(F)(F)F)c2c1N (centres unmarked) [Example 134] | 2.5 to 10 nM |
| Cc1cc(-c2cc(-c3cncnc3)nc3sc([S+]([O-])C4CCC4)c(N)c23)n(C)n1 (centres unmarked) [Example 356] | < 2.5 nM |
| Nc1c([S@+]([O-])C2CCC2)sc2nc(-c3cnc(NCCO)nc3)cc(-c3ccccc3)c12 [Example 51] | < 2.5 nM |
| Cn1nc2cc(-c3cc(-c4ccnn4C)c4c(N)c([S+]([O-])C5CCC5)sc4n3)cnc2n1 (centres unmarked) [Example 378] | < 2.5 nM |
| COCC[S+]([O-])c1sc2nc(-c3ccc(N)nc3)cc(C(F)(F)F)c2c1N (centres unmarked) [Example 135] | 2.5 to 10 nM |
| COCCC[S@@+]([O-])c1sc2nc(-c3cnc4c(cnn4C)c3)cc(-c3cccnc3)c2c1N [Example 101] | < 2.5 nM |
| COCC[S+]([O-])c1sc2nc(-c3cnc4nn(C)cc4c3)cc(-c3ccccc3)c2c1N (centres unmarked) [Example 124] | < 2.5 nM |
| Nc1c([S@@+]([O-])C2CCC2)sc2nc(-c3cnc(NCCO)nc3)cc(-c3ccccn3)c12 [Example 95] | ≥ 10 nM |
| Nc1c([S+]([O-])C2CCC2)sc2nc(-c3cncnc3)cc(-c3ccon3)c12 (centres unmarked) [Example 308] | < 2.5 nM |
